Tests used:
[1] = tested on: LAMPU (Lamium purpureum, purple deadnettle); assay: Post-emergence foliar-applied weed control in cereal crops, greenhouse (Example III); assay type: in vivo, Lamium purpureum (L.); conditions: Table 51, after 20-22 days, 10 gai/ha alone
Experimental: (§1) Seeds of the desired test plant species were planted in Sun Gro MetroMix® 306 planting mixture, which typically has a pH of 6.0 to 6.8 and an organic matter content of about 30 percent, in plastic pots with a surface area of 103.2 square centimeters (cm^2). When required to ensure good germination and healthy plants, a fungicide treatment and/or other chemical or physical treatment was applied. The plants were grown for 7-36 days in a greenhouse with an approximate 14 hour photoperiod which was maintained at about 18° C. during the day and 17° C. during the night. Nutrients and water were added on a regular basis and supplemental lighting was provided with overhead metal halide 1000-Watt lamps as necessary. The plants were employed for testing when they reached the second or third true leaf stage.
(§2) Treatments consisted of the benzyl ester of 4-amino-3-chloro-5-fluoro-6-(4-chloro-2-fluoro-3-methoxy-phenyl)pyridine-2-carboxylic acid (Compound A), formulated as an SC (suspension concentrate), and a second cereal herbicide alone and in combination.
(§3) Measured aliquot of benzyl ester of 4-amino-3-chloro-5-fluoro-6-(4-chloro-2-fluoro-3-methoxy-phenyl)pyridine-2-carboxylic acid (Compound A) was placed in 25 milliliter (mL) glass vials and diluted in a volume of 1.25% (v/v) Agri-dex crop oil concentrated to obtain stock solutions. Compound requirements are based upon a 12 mL application volume at a rate of 187 liters per hectare (L/ha). Spray solutions of the second cereal herbicide and experimental compound mixtures were prepared by adding the stock solutions to the appropriate amount of dilution solution to form 12 mL spray solution with active ingredients in two- and three-way combinations. Formulated compounds were applied to the plant material with an overhead Mandel track sprayer equipped with an 8002E nozzle calibrated to deliver 187 L/ha over an application area of 0.503 square meters (m^2) at a spray height of 18 inches (46 cm) above average plant canopy. Control plants were sprayed in the same manner with the solvent blank.
(§4) The treated plants and control plants were placed in a greenhouse as described above and watered by sub-irrigation to prevent wash-off of the test compounds. After 20-22 days, the condition of the test plants as compared with that of the control plants was determined visually and scored on a scale of 0 to 100 percent where 0 corresponds to no injury and 100 corresponds to complete kill.
(§5) Colby's equation was used to determine the herbicidal effects expected from the mixtures (Colby, S. R. 1967. Calculation of the synergistic and antagonistic response of herbicide combinations. Weeds 15:20-22.).
(§6) The following equation was used to calculate the expected activity of mixtures containing two active ingredients, A and B: Expected=A+B−(A×B/100)

[2] = tested on: GALAP (Galium aparine, cleavers); assay: as above; assay type: in vivo, Galium aparine (L.); conditions: Table 51, after 20-22 days, 10 gai/ha alone
Experimental: as §1, with “The plants were employed for testing when they reached the second or third true leaf stage.” left out
Measured aliquot of benzyl ester of 4-amino-3-chloro-5-fluoro-6-(4-chloro-2-fluoro-3-methoxy-phenyl)pyridine-2-carboxylic acid (Compound A) was placed in 25 milliliter (mL) glass vials and diluted in a volume of 1.25% (v/v) Agri-dex crop oil concentrated to obtain stock solutions. […]
as §4, with “kill. […]” for “kill.”

[3] = tested on: VERPE (Veronica persica, bird's-eye speedwell); assay: as above; assay type: in vivo, Veronica persica Poir.; conditions: Table 51, after 20-22 days, 10 gai/ha alone
Experimental: as §1, §2, §3, §4, §5, §6

[4] = tested on: LEFCH (Leptochloa chinensis, Chinese sprangletop); assay: Postemergence foliar-applied weed control, direct seeded rice, greenhouse (Example I); assay type: in vivo, Leptochloa chinensis (L.) Nees; conditions: 22 DAA
In short: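 Greenhouse-grown plants in loam/sandy loam–grit soil (14 h photoperiod, ~29/26 °C) were sprayed postemergence at the first to fourth true leaf stage. Compound A (acid equivalent basis) and ALS-inhibiting sulfonylureas (active ingredient basis) were applied alone and in combination in 1.25% (v/v) crop oil concentrate at 187 L/ha by track sprayer; controls received solvent blank.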

[5] = tested on: SETFA (Setaria faberi, giant foxtail); assay: Pre-emergence soil-applied weed control, greenhouse (Example V); assay type: in vivo, Setaria faberi Herrm.; conditions: Table 59 (pre-emergence), 25 gai/ha alone
Text: Seeds or nutlets of the desired test plant species were planted in a soil matrix prepared by mixing a loam soil (32 percent silt, 23 percent clay, and 45 percent sand, with a pH of about 6.5 and an organic matter content of about 1.9 percent) and calcareous grit in an 80 to 20 ratio. The soil matrix was contained in plastic pots with a volume of 1 quart and a surface area of 83.6 square centimeters (cm^2).
Treatments consisted of the benzyl ester of 4-amino-3-chloro-5-fluoro-6-(4-chloro-2-fluoro-3-methoxy-phenyl)pyridine-2-carboxylic acid (compound A) formulated as an SC (suspension concentrate) and various herbicidal components alone and in combination. Forms of compound A were applied on an acid equivalent basis.
Other herbicidal components were applied on an acid equivalent or active ingredient basis and included the acetolactate synthase (ALS)-inhibiting herbicide, flazasulfuron, formulated as Katana®.
(§7) Treatment requirements were calculated based upon the rates being tested, the concentration of active ingredient or acid equivalent in the formulation, and a 12 mL application volume at a rate of 187 L/ha.
For treatments comprised of formulated compounds, measured amounts of compounds were placed individually in 25 mL glass vials and diluted in a volume of 1.25% (v/v) Agri-Dex® crop oil concentrate (COC) to obtain 12× stock solutions. […] Application solutions were prepared by adding an appropriate amount of each stock solution (e.g., 1 mL) and diluted to the appropriate final concentrations with the addition of 10 mL of an aqueous mixture of 1.25% (v/v) COC so that the final spray solutions contained 1.25% (v/v) COC. […]
The treated and control pots were placed in a greenhouse and top watered as needed. […] After approximately 4 weeks, the condition of the test plants as compared with that of the untreated plants was determined visually and scored on a scale of 0 to 100 percent where 0 corresponds to no injury or growth inhibition and 100 corresponds to complete kill. […]

[6] = tested on: IPOHE (Ipomoea hederacea, ivyleaf morningglory); assay: Postemergence foliar-applied weed control, direct seeded rice, greenhouse (Example I); assay type: in vivo, Ipomoea hederacea Jacq.; conditions: 22 DAA
Text: Seeds or nutlets of the desired test plant species were planted in a soil matrix prepared by mixing a loam or sandy loam soil (e.g., 28.6 percent silt, 18.8 percent clay, and 52.6 percent sand, with a pH of about 5.8 and an organic matter content of about 1.8 percent) and calcareous grit in an 80 to 20 ratio. The soil matrix was contained in plastic pots with a volume of 1 quart and a surface area of 83.6 square centimeters (cm^2). When required to ensure good germination and healthy plants, a fungicide treatment and/or other chemical or physical treatment was applied. The plants were grown for 8-22 days in a greenhouse with an approximate 14 h photoperiod which was maintained at about 29° C. during the day and 26° C. during the night. Nutrients (Peters Excel® 15-5-15 5-Ca 2-Mg and iron chelate) were applied in the irrigation solution as needed and water was added on a regular basis. Supplemental lighting was provided with overhead metal halide 1000-Watt lamps as necessary. The plants were employed for testing when they reached the first through fourth true leaf stage.
Treatments consisted of the acid or esters of 4-amino-3-chloro-5-fluoro-6-(4-chloro-2-fluoro-3-methoxy-phenyl)pyridine-2-carboxylic acid (Compound A), each formulated as an SC, and various herbicidal components alone and in combination. Forms of compound A were applied on an acid equivalent basis.
Other herbicidal components were applied on an active ingredient basis and included acetolactate synthase (ALS)-inhibiting herbicides (sulfonylurea chemical class) azimsulfuron formulated as Gulliver®, bensulfuron-methyl formulated as Londax® 60DF, cyclosulfamuron (technical material), ethoxysulfuron formulated as Sunrice® 15 WDG, flazasulfuron formulated as Katana®, flucetosulfuron formulated as Sukedachi® 1KG G, foramsulfuron formulated as Option®, imazosulfuron formulated as Brazzos® WG, iodosulfuron-methyl-sodium formulated as Hussar®, metsulfuron-methyl formulated as Lorate®, nicosulfuron formulated as Accent®, orthosulfamuron formulated as Strada® WG, primisulfuron-methyl (technical material), propyrisulfuron formulated as Zeta One®, rimsulfuron formulated as Matrix® WG, sulfometuron-methyl formulated as Oust®, and trifloxysulfuron-sodium formulated as Monument® 75WG.
as §7
For treatments comprised of formulated compounds, measured amounts of compounds were placed individually in 25 mL glass vials and diluted in a volume of 1.25% (v/v) Agri-Dex® crop oil concentrated to obtain 12× stock solutions. […] Application solutions were prepared by adding an appropriate amount of each stock solution (e.g., 1 mL) and diluted to the appropriate final concentrations with the addition of 10 mL of an aqueous mixture of 1.25% (v/v) crop oil concentrate so that the final spray solutions contained 1.25+/−0.05% (v/v) Agrcrop oil concentrate.
For treatments comprised of formulated and technical compounds, weighed amounts of the technical materials were placed individually in 25 mL glass vials and dissolved in a volume of 97:3 v/v acetone/DMSO to obtain 12× stock solutions, and measured amounts of the formulated compounds were placed individually in 25 mL glass vials and diluted in a volume of 1.25% (v/v) crop oil concentrate to obtain 12× stock solutions. […] Application solutions were prepared by adding an appropriate amount of each stock solution (e.g., 1 mL) and diluted to the appropriate final concentrations with the addition of an appropriate amount of an aqueous mixture of 1.5% (v/v) crop oil concentrate so that the final spray solutions contained 1.25% (v/v) crop oil concentrate. […]

SMILES | Weed Control LAMPU Obs [1] | Weed Control GALAP Obs [2] | Weed Control VERPE Obs [3] | Visual Weed Control Obs ([4]; 25 gai/ha) | Visual Weed Control Obs ([4]; 50 gai/ha) | Visual Weed Control (%) - 27 DAA SETFA Obs [5] | Visual Weed Control Obs ([6]; 50 gai/ha) | Visual Weed Control (%) Obs ([6]; 100 gai/ha) | Visual Weed Control Obs ([6]; 100 gai/ha)
COc1cc(OC)nc(NC(=O)NS(=O)(=O)N(C)S(C)(=O)=O)n1 [Amidosulfuron] | 0% | 48% | 0% |  |  |  |  |  | 
COc1cc(OC)nc(NC(=O)NS(=O)(=O)c2ncccc2C(F)(F)F)n1 [Flazasulfuron, N-[[(4,6-dimethoxy-2-pyrimidinyl)amino]carbonyl]-3-(trifluoromethyl)-2-pyridinesulfonamide, reference compound] |  |  |  | 0% | 10% | 62% | 50% | 50% | 50%
